For 56 compounds, IC50 results are on record in patent US20230151014A1 (Repare Therapeutics Inc., priority 2020, published 2023).

The assay concerns the target T1, recombinant human Myt1 (Homo sapiens, UniProt Q99640).
T1 construct: full length PKMYT1 recombinant human protein expressed in insect cells
T1 sequence (Q99640 1-499): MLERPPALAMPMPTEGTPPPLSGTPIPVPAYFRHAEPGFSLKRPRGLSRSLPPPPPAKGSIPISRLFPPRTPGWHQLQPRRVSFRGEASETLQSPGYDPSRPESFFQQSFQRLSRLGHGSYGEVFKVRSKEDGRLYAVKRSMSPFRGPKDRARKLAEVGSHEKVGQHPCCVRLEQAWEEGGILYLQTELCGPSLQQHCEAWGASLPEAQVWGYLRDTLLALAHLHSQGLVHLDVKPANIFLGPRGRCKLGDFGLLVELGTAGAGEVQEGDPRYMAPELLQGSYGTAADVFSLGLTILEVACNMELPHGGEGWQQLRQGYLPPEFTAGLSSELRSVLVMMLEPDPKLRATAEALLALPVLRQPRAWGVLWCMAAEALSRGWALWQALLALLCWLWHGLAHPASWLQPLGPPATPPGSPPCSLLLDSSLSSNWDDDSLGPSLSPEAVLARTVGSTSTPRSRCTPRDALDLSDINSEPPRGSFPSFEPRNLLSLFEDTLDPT
Nature of the assay: Myt1 enzymatic assay (ADP-Glo kinase assay, IC50 and % max inhibition). The assay is classed as biochemical. Conditions: recombinant human Myt1 18 nM, ATP 10 μM. The procedure: Detection of Myt1 kinase activity utilized a recombinant human Myt1 kinase assay measuring the hydrolysis of ATP using a commercially available ADP-Glo Assay (ADP-Glo™ Kinase Assay from Promega, 10 000 assays, #V9102). […] After this, 5 μL of compounds (diluted in reaction buffer to 0.5% DMSO) was added to the microplate and the plate was spun briefly and incubated at 22° C. for 15 minutes. Ultra-Pure Adenosine Triphosphate (ATP) solution (ADP-Glo kit from Promega) was diluted in reaction buffer and 5 μL was added to the microplate, spun down briefly and incubated for 60 minutes at 30° C. […] After the 60-minute incubation, 15 μL of ADP-Glo reagent was added and the plate was spun briefly and sealed and incubated in the dark for 40 minutes at 22° C. […] Luminescence was read using the Envision (250 ms integration). The IC50 and the % max inhibition were calculated for each inhibitor compound tested.
`Cc1ccc(O)c(C)c1-n1c(N)c(C(N)=O)c2c(C)c(C)cnc21` [Compound 125]: the IC50 was 16 nM.
Next, `Cc1ccc(O)cc1-n1c(N)c(C(N)=O)c2nc(C#CCC(C)(C)O)ccc21` [Compound 17]: 9060 nM.
`Cc1ccc(O)cc1-n1c(N)c(C(N)=O)c2nc(-c3cccc(C#N)c3)ccc21` [Compound 14]: the IC50 came out at 480 nM.
Next, `Cc1ccc(O)c(C)c1-n1c(N)c(C(N)=O)c2ncc(C#CC3CCCCO3)nc21` (centres unmarked) [Compound 224]: 13 nM; `C=Cc1cnc2c(n1)c(C(N)=O)c(N)n2-c1c(C)ccc(O)c1C` [Compound 259]: under 10 nM.
Then `Cc1ccc(O)c(C)c1-n1c(N)c(C(N)=O)c2nc(-c3ccnc(C(F)(F)F)c3)cnc21` [Compound 35, 6-amino-5-(3-hydroxy-2,6-dimethyl-phenyl)-2-[2-(trifluoromethyl)-4-pyridyl]pyrrolo[2,3-b]pyrazine-7-carboxamide], with under 10 nM.
For the compound `Cc1ccc(O)c(C)c1-n1c(N)c(C(N)=O)c2nc(N3CCC(N4CCOCC4)CC3)cnc21` [Compound 74], the IC50 came out at 14 nM.
Then `Cc1cnc2c(C(N)=O)c(N)n(-c3cc(O)ccc3C)c2n1` [Compound 167], with 361 nM; and `COC(C)(C)C#Cc1cnc2c(C(N)=O)c(N)n(-c3c(C)ccc(O)c3C)c2n1` [Compound 238], with 10 nM.
Next, `Cc1ccc(O)c(C)c1-n1c(N)c(C(N)=O)c2nc(-c3cncs3)cnc21` [Compound 37]: under 10 nM.
As for `CCCCc1cnc2c(n1)c(C(N)=O)c(N)n2-c1c(C)ccc(O)c1C` [Compound 96], the IC50 was 10 nM.
Next, `CC(=O)Nc1cccc(-c2cnc3c(C(N)=O)c(N)n(-c4cc(O)ccc4C)c3n2)c1` [Compound 157]: 1240 nM; `Cc1ccc(O)cc1-n1c(N)c(C(N)=O)c2nc(OCc3cccnc3)cnc21` [Compound 284]: 238 nM.
Then `Cc1ccc(O)c(C)c1-n1c(N)c(C(N)=O)c2ncc(C#CC3(C)CCCO3)nc21` (centres unmarked) [Compound 235], with 13 nM; and `Cc1ccc(O)c(C)c1-n1c(N)c(C(N)=O)c2cc(C(C)C)cnc21` [Compound 138], with under 10 nM; and `Cc1ccc(O)c(C)c1-n1c(N)c(C(N)=O)c2nc(-c3ccncn3)cnc21` [Compound 57], with under 10 nM.
In the case of `Cc1ccc(O)c(C)c1-n1c(N)c(C(N)=O)c2nc(C3CC3)c(C)nc21` [Compound 100], the IC50 was under 10 nM.
As to `Cc1ccc(O)c(C)c1-n1c(N)c(C(N)=O)c2ncc(C#CCC3(O)CCOCC3)nc21` [Compound 237], the concentration for half-maximal inhibition (IC50) turned out to be 19 nM.
`Cc1ccc(O)c(C)c1-n1c(N)c(C(N)=O)c2nc(C#CCc3ccccc3)cnc21` [Compound 1]: the concentration for half-maximal inhibition (IC50) turned out to be 50 nM.
Next, `Cc1ccc(-c2cnc3c(n2)c(C(N)=O)c(N)n3-c2c(C)ccc(O)c2C)nc1` [Compound 61]: under 10 nM; `Cc1ccc(O)c(C)c1-n1c(N)c(C(N)=O)c2ncc(C#CC3(O)CCOCC3)nc21` [Compound 231]: under 10 nM.
Next, `Cc1ccc(O)c(C)c1-n1c(N)c(C(N)=O)c2nc(-c3nccs3)c(C#CC3CC3)nc21` [Compound 214, 6-amino-3-(2-cyclopropylethynyl)-5-(3-hydroxy-2,6-dimethyl-phenyl)-2-thiazol-2-yl-pyrrolo[2,3-b]pyrazine-7-carboxamide]: 136 nM; `Cc1ccc(O)c(C)c1-n1c(N)c(C(N)=O)c2nc(C#CC3CCCN3)cnc21` (centres unmarked) [Compound 3]: 462 nM; `Cc1ccc(O)c(C)c1-n1c(N)c(C(N)=O)c2nc(-c3cc4ccccc4n3C)cnc21` [Compound 247]: 17 nM.
For the compound `Cc1ccc(O)cc1-n1c(N)c(C(N)=O)c2nccnc21` [Compound 146], the 50% inhibitory concentration (IC50) was found to be 1420 nM.
For the compound `Cc1ccc(O)c(C)c1-n1c(N)c(C(N)=O)c2nc(N3CCCCC3)cnc21` [Compound 81], the IC50 is under 10 nM.
Then `Cc1ccc(O)cc1-n1c(N)c(C(N)=O)c2nc(C#CCN3CCOCC3)ccc21` [Compound 16, 2-amino-1-(5-hydroxy-2-methyl-phenyl)-5-(3-morpholinoprop-1-ynyl)pyrrolo[3,2-b]pyridine-3-carboxamide], with 9630 nM.
For the compound `Cc1ccc(O)c(C)c1-n1c(N)c(C(N)=O)c2nc(-c3ccc(F)cn3)cnc21` [Compound 64], the IC50 is under 10 nM.
For `Cc1ccc(O)c(C)c1-n1c(N)c(C(N)=O)c2nc(-c3nc4ccccc4o3)cnc21` [Compound 249], the IC50 was 20 nM.
`Cc1ccc(O)c(C)c1-n1c(N)c(C(N)=O)c2nc(C(=O)NCc3ccccc3)cnc21` [Compound 245]: the IC50 amounted to 11 nM.
Then `Cc1ccc(O)c(C)c1-n1c(N)c(C(N)=O)c2ncc(C#C[C@@H](C)O)nc21` [Compound 241], with 24 nM; and `Cc1ccc(O)c(C)c1-n1c(N)c(C(N)=O)c2cc(C#N)cnc21` [Compound 312], with under 10 nM.
Then `Cc1ccc(O)c(C)c1-n1c(N)c(C(N)=O)c2nc(C(N)=O)cnc21` [Compound 220, 6-amino-5-(3-hydroxy-2,6-dimethyl-phenyl)pyrrolo[2,3-b]pyrazine-2,7-dicarboxamide], with under 10 nM; and `Cc1ccc(O)c(C)c1-n1c(N)c(C(N)=O)c2nc(-c3nccs3)c(C#CCN3CCOCC3)nc21` [Compound 216], with 76 nM; and `Cc1ccc(O)c(C)c1-n1c(N)c(C(N)=O)c2ncc(C#CCN3CCOCC3)nc21` [Compound 218], with 22 nM.
Then `Cc1ccc(O)c(C)c1-n1c(N)c(C(N)=O)c2ncc(C#CC3(O)CCOC3)nc21` (centres unmarked) [Compound 236], with 16 nM.
Consider `Cc1ccc(O)c(C)c1-n1c(N)c(C(N)=O)c2nc(N3CCN(C)CC3)cnc21` [Compound 53], for which the IC50 came to 16 nM.
For the compound `Cc1ccc(O)c(C)c1-n1c(N)c(C(N)=O)c2c(Cl)c(Cl)cnc21` [Compound 316], the IC50 is under 10 nM.
Next, `Cc1ccc(O)cc1-n1c(N)c(C(N)=O)c2nc(-c3ccc(N4CCN(CCO)CC4)cc3)ccc21` [Compound 13]: 190 nM; `Cc1ccc(O)c(C)c1-n1c(N)c(C(N)=O)c2nc(C(F)F)cnc21` [Compound 263, 6-amino-2-(difluoromethyl)-5-(3-hydroxy-2,6-dimethyl-phenyl)pyrrolo[2,3-b]pyrazine-7-carboxamide]: 16 nM; `Cc1ccc2c(C(N)=O)c(N)n(-c3c(C)ccc(O)c3C)c2n1` [Compound 193]: under 10 nM.
Turning to `Cc1ccc(O)c(C)c1-n1c(N)c(C(N)=O)c2nc(-c3cnccn3)cnc21` [Compound 38], the 50% inhibitory concentration (IC50) is under 10 nM.
Then `Cc1ccc(O)c(C)c1-n1c(N)c(C(N)=O)c2nc(N3CC4(COC4)C3)cnc21` [Compound 253], with 24 nM.
For `Cc1ccc(O)c(C)c1-n1c(N)c(C(N)=O)c2nc(-c3c[nH]cn3)cnc21` [Compound 65], the IC50 was under 10 nM.
Turning to `Cc1ccc(O)c(C)c1-n1c(N)c(C(N)=O)c2ncc(C#Cc3ccccn3)nc21` [Compound 227], the IC50 was 50 nM.
Then `CCN(CC)C(=O)c1cnc2c(n1)c(C(N)=O)c(N)n2-c1c(C)ccc(O)c1C` [Compound 246], with 84 nM; and `Cc1ccc(O)cc1-n1c(N)c(C(N)=O)c2ncc(C(F)(F)F)cc21` [Compound 212, 2-amino-1-(5-hydroxy-2-methyl-phenyl)-6-(trifluoromethyl)pyrrolo[3,2-b]pyridine-3-carboxamide], with 3440 nM; and `Cc1ccc(O)c(C)c1-n1c(N)c(C(N)=O)c2cc(-c3nccs3)cnc21` [Compound 308], with under 10 nM.
As to `Cc1ccc(O)c(C)c1-n1c(N)c(C(N)=O)c2nc(-c3ccn(C)n3)cnc21` [Compound 72], the IC50 amounted to 11 nM.
In the case of `CCN(CC)c1cnc2c(n1)c(C(N)=O)c(N)n2-c1c(C)ccc(O)c1C` [Compound 88], the IC50 was under 10 nM.
Then `Cc1ccc(O)c(C)c1-n1c(N)c(C(N)=O)c2cc(-c3ccccn3)cnc21` [Compound 295], with under 10 nM; and `Cc1ccc(O)cc1-n1c(N)c(C(N)=O)c2nc(-c3ccnc(N)c3)ccc21` [Compound 22], with 79 nM; and `Cc1ccc(O)cc1-n1c(N)c(C(N)=O)c2ncc(CCc3ccccn3)nc21` [Compound 159], with 1720 nM.
Turning to `Cc1ccc(O)c(C)c1-n1c(N)c(C(N)=O)c2cc(C3=CCOCC3)cnc21` [Compound 304], the IC50 is under 10 nM.
Then `Cc1c(O)ccc(Br)c1-n1c(N)c(C(N)=O)c2cc(Cl)cnc21` [Compound 301], with 13 nM; and `Cc1ccc(O)c(C)c1-n1c(N)c(C(N)=O)c2nc(C#CCN3CCOCC3)c(C#CCN3CCOCC3)nc21` [Compound 215], with 24 nM.
